# In patent US11484539B2, “Compounds and their uses for alleviating menopause-associated symptoms” (Estetra SPRL, priority 2018, dated 2022):
# Tested on: post-menopausal women
# Assay: Hot Flush Weekly Weighted Score, dose-finding study
# Format: in vivo
# Conditions: for Relative change in Hot Flush Weekly Weighted Score, LS adjusted mean: analysis with placebo grouped with 2.5 and 5 mg; for LS adjusted mean change from baseline in Hot Flush Weekly Weighted Score: 15 mg E4; for Covariate significance, covariate trt1, p_value, relative change in Hot Flush Weekly Weighted Score: 15 mg vs placebo grouped with 2.5 and 5 mg
# Procedure: Further, the terms “Hot Flush Weekly Weighted Score”, as used herein, corresponds to a score taking into account frequency and severity which is calculated by using the severity score (as calculated above): [(1× No. of mild VMS)+(2× No. of moderate VMS)+(3× No. of severe VMS)] during a 7 day period.
# Such a weighted score was for example used by Notelovitz et al. (“Initial 17β-Estradiol Dose for Treating Vasomotor Symptoms”; Obstetrics and Gynaecology, Vol. 95(5), May 2000, p. 726-731). This score was used to generate the data included in Example 1 further below, under section A. c) “Hot Flush Weekly Weighted Score”.
smiles,measurement,setting,value
"C[C@]12CC[C@@H]3c4ccc(O)cc4CC[C@H]3[C@@H]1[C@@H](O)[C@@H](O)[C@@H]2O [E4, 1,3,5 (10)-estratrien-3,15alpha,16alpha,17beta-tetrol]","Relative change (% from baseline) in Hot Flush Weekly Weighted Score, mean","10 mg E4 QD per os, week 9",−67%
same,Mean change from baseline in Hot Flush Weekly Weighted Score,"10 mg E4 QD per os, week 10",−109.514
same,"Relative change (% from baseline) in Hot Flush Weekly Weighted Score, mean","10 mg E4 QD per os, week 10",−68%
same,Mean change from baseline in Hot Flush Weekly Weighted Score,"10 mg E4 QD per os, week 11",−109.532
same,"Relative change (% from baseline) in Hot Flush Weekly Weighted Score, mean","10 mg E4 QD per os, week 11",−69%
same,Mean change from baseline in Hot Flush Weekly Weighted Score,"10 mg E4 QD per os, week 12",−111.764
same,"Relative change (% from baseline) in Hot Flush Weekly Weighted Score, mean","10 mg E4 QD per os, week 12",−70%
same,"Difference with placebo, LS adjusted mean, absolute change in Hot Flush Weekly Weighted Score","10 mg E4 vs placebo, week 4",−7.296
same,"Difference with placebo, LS adjusted mean, absolute change in Hot Flush Weekly Weighted Score","10 mg E4 vs placebo, week 12",−5.078
same,"Differences with placebo (including ineffective doses 2.5 mg and 5 mg), relative change in Hot Flush Weekly Weighted Score, LS adjusted mean","10.0 mg vs 0 mg, week 4",−0.06006
same,"Differences with placebo (including ineffective doses 2.5 mg and 5 mg), relative change in Hot Flush Weekly Weighted Score, p_value","10.0 mg vs 0 mg, week 4",0.4167
same,"Differences with placebo, relative change in weekly weighted score, p_value","10.0 mg vs 0 mg, week 4",0.6745
same,"Differences with placebo (including ineffective doses 2.5 mg and 5 mg), relative change in Hot Flush Weekly Weighted Score, LS adjusted mean","10.0 mg vs 0 mg, week 12",−0.08625
same,"Differences with placebo (including ineffective doses 2.5 mg and 5 mg), relative change in Hot Flush Weekly Weighted Score, p_value","10.0 mg vs 0 mg, week 12",0.1404
same,"Differences with placebo, relative change in weekly weighted score, p_value","10.0 mg vs 0 mg, week 12",0.7861
same,"Relative change (% from baseline) in Hot Flush Weekly Weighted Score, mean","10 mg, Week 12",−69%
same,"Relative change (% from baseline) in weekly weighted score, LS adjusted mean","10 mg, Week 12",−0.6994
same,"Relative change (% from baseline) in Hot Flush Weekly Weighted Score, mean","10 mg, week 0",0%
same,"Relative change (% from baseline) in Hot Flush Weekly Weighted Score, mean","10 mg, week 1",−20%
same,"Relative change (% from baseline) in Hot Flush Weekly Weighted Score, mean","10 mg, week 2",−34%
same,"Relative change (% from baseline) in Hot Flush Weekly Weighted Score, mean","10 mg, week 3",−46%
same,"Relative change (% from baseline) in Hot Flush Weekly Weighted Score, mean","10 mg, week 4",−53%
same,"Relative change (% from baseline) in weekly weighted score, LS adjusted mean","10 mg, week 4",−0.5419
same,"Relative change in Hot Flush Weekly Weighted Score, LS adjusted mean","10 mg, week 4",−0.5137
same,"Relative change (% from baseline) in Hot Flush Weekly Weighted Score, mean","10 mg, week 5",−57%
same,"Relative change (% from baseline) in Hot Flush Weekly Weighted Score, mean","10 mg, week 6",−62%
same,"Relative change (% from baseline) in Hot Flush Weekly Weighted Score, mean","10 mg, week 7",−64%
same,"Relative change (% from baseline) in Hot Flush Weekly Weighted Score, mean","10 mg, week 8",−66%
same,"Relative change (% from baseline) in Hot Flush Weekly Weighted Score, mean","10 mg, week 9",−66%
same,"Relative change (% from baseline) in Hot Flush Weekly Weighted Score, mean","10 mg, week 10",−68%
same,"Relative change (% from baseline) in Hot Flush Weekly Weighted Score, mean","10 mg, week 11",−68%
same,"Relative change in Hot Flush Weekly Weighted Score, LS adjusted mean","10 mg, week 12",−0.6776
same,LS adjusted mean change from baseline in Hot Flush Weekly Weighted Score,week 4,−106.3
same,LS adjusted mean change from baseline in Hot Flush Weekly Weighted Score,week 12,−130.6
same,Mean change from baseline in Hot Flush Weekly Weighted Score,"15 mg E4 QD per os, week 0",2.219
same,Mean change from baseline in Hot Flush Weekly Weighted Score,"15 mg E4 QD per os, week 1",−33.1745
same,"Relative change (% from baseline) in Hot Flush Weekly Weighted Score, mean","15 mg E4 QD per os, week 1",−19%
same,Mean change from baseline in Hot Flush Weekly Weighted Score,"15 mg E4 QD per os, week 2",−67.6983
same,"Relative change (% from baseline) in Hot Flush Weekly Weighted Score, mean","15 mg E4 QD per os, week 2",−43%
same,Mean change from baseline in Hot Flush Weekly Weighted Score,"15 mg E4 QD per os, week 3",−85.1915
same,"Relative change (% from baseline) in Hot Flush Weekly Weighted Score, mean","15 mg E4 QD per os, week 3",−56%
same,Mean change from baseline in Hot Flush Weekly Weighted Score,"15 mg E4 QD per os, week 4",−98.8329
same,"Relative change (% from baseline) in Hot Flush Weekly Weighted Score, mean","15 mg E4 QD per os, week 4",−66%
same,Mean change from baseline in Hot Flush Weekly Weighted Score,"15 mg E4 QD per os, week 5",−105.223
same,"Relative change (% from baseline) in Hot Flush Weekly Weighted Score, mean","15 mg E4 QD per os, week 5",−70%
same,Mean change from baseline in Hot Flush Weekly Weighted Score,"15 mg E4 QD per os, week 6",−110.268
same,"Relative change (% from baseline) in Hot Flush Weekly Weighted Score, mean","15 mg E4 QD per os, week 6",−74%
same,Mean change from baseline in Hot Flush Weekly Weighted Score,"15 mg E4 QD per os, week 7",−115.263
same,"Relative change (% from baseline) in Hot Flush Weekly Weighted Score, mean","15 mg E4 QD per os, week 7",−78%
same,Mean change from baseline in Hot Flush Weekly Weighted Score,"15 mg E4 QD per os, week 8",−115.656
same,"Relative change (% from baseline) in Hot Flush Weekly Weighted Score, mean","15 mg E4 QD per os, week 8",−78%
same,Mean change from baseline in Hot Flush Weekly Weighted Score,"15 mg E4 QD per os, week 9",−118.578
same,"Relative change (% from baseline) in Hot Flush Weekly Weighted Score, mean","15 mg E4 QD per os, week 9",−80%
same,Mean change from baseline in Hot Flush Weekly Weighted Score,"15 mg E4 QD per os, week 10",−116.853
same,"Relative change (% from baseline) in Hot Flush Weekly Weighted Score, mean","15 mg E4 QD per os, week 10",−79%
same,Mean change from baseline in Hot Flush Weekly Weighted Score,"15 mg E4 QD per os, week 11",−119.365
same,"Relative change (% from baseline) in Hot Flush Weekly Weighted Score, mean","15 mg E4 QD per os, week 11",−80%
same,Mean change from baseline in Hot Flush Weekly Weighted Score,"15 mg E4 QD per os, week 12",−121.777
same,"Relative change (% from baseline) in Hot Flush Weekly Weighted Score, mean","15 mg E4 QD per os, week 12",−82%
same,"Difference with placebo, LS adjusted mean, absolute change in Hot Flush Weekly Weighted Score","15 mg E4 vs placebo, week 4",−28.06
same,"Difference with placebo, LS adjusted mean, absolute change in Hot Flush Weekly Weighted Score","15 mg E4 vs placebo, week 12",−25.91
same,"Differences with placebo (including ineffective doses 2.5 mg and 5 mg), relative change in Hot Flush Weekly Weighted Score, LS adjusted mean","15.0 mg vs 0 mg, week 4",−0.1788
same,"Differences with placebo (including ineffective doses 2.5 mg and 5 mg), relative change in Hot Flush Weekly Weighted Score, p_value","15.0 mg vs 0 mg, week 4",0.00178
same,"Differences with placebo, relative change in weekly weighted score, p_value","15.0 mg vs 0 mg, week 4",0.0267
same,"Differences with placebo (including ineffective doses 2.5 mg and 5 mg), relative change in Hot Flush Weekly Weighted Score, LS adjusted mean","15.0 mg vs 0 mg, week 12",−0.177
same,"Differences with placebo (including ineffective doses 2.5 mg and 5 mg), relative change in Hot Flush Weekly Weighted Score, p_value","15.0 mg vs 0 mg, week 12",0.00097
same,"Differences with placebo, relative change in weekly weighted score, p_value","15.0 mg vs 0 mg, week 12",0.0276
same,"Relative change (% from baseline) in Hot Flush Weekly Weighted Score, mean","15 mg, Week 12",−81%
same,"Relative change (% from baseline) in weekly weighted score, LS adjusted mean","15 mg, Week 12",−0.8122
same,"Relative change (% from baseline) in Hot Flush Weekly Weighted Score, mean","15 mg, week 0",0%
same,"Relative change (% from baseline) in Hot Flush Weekly Weighted Score, mean","15 mg, week 1",−22%
same,"Relative change (% from baseline) in Hot Flush Weekly Weighted Score, mean","15 mg, week 2",−45%
same,"Relative change (% from baseline) in Hot Flush Weekly Weighted Score, mean","15 mg, week 3",−56%
same,"Relative change (% from baseline) in Hot Flush Weekly Weighted Score, mean","15 mg, week 4",−66%
same,"Relative change (% from baseline) in weekly weighted score, LS adjusted mean","15 mg, week 4",−0.6503
same,"Relative change in Hot Flush Weekly Weighted Score, LS adjusted mean","15 mg, week 4",−0.6324
same,"Relative change (% from baseline) in Hot Flush Weekly Weighted Score, mean","15 mg, week 5",−70%
same,"Relative change (% from baseline) in Hot Flush Weekly Weighted Score, mean","15 mg, week 6",−72%
same,"Relative change (% from baseline) in Hot Flush Weekly Weighted Score, mean","15 mg, week 7",−75%
same,"Relative change (% from baseline) in Hot Flush Weekly Weighted Score, mean","15 mg, week 8",−76%
same,"Relative change (% from baseline) in Hot Flush Weekly Weighted Score, mean","15 mg, week 9",−78%
same,"Relative change (% from baseline) in Hot Flush Weekly Weighted Score, mean","15 mg, week 10",−77%
same,"Relative change (% from baseline) in Hot Flush Weekly Weighted Score, mean","15 mg, week 11",−79%
same,"Relative change in Hot Flush Weekly Weighted Score, LS adjusted mean","15 mg, week 12",−0.7683
same,"Covariate significance, covariate trt1, p_value, relative change in Hot Flush Weekly Weighted Score","week 4, 10 mg",0.0037
same,"Covariate significance, covariate trt1, p_value, relative change in Hot Flush Weekly Weighted Score","week 12, 10 mg",0.0015
